Experimental data published in patent US20040082605A1, “Use” (priority 2001, published 2004).

Test system: gastric (corpus) ulcers induced by indomethacin
Assay: Indomethacin induced gastric ulcer in rats, stomach examined macroscopically
Type: in vivo
Conditions: male rats; for Median number of gastric (corpus) ulcers induced by indomethacin: Ulcer furrows / Median number of gastric (corpus) ulcers induced by indomethacin: Pinhead ulcers: stomach removed 5 h after indomethacin; for Median number of gastric (corpus) ulcers induced by indomethacin: Ulcer furrows: furrows >3 mm; for Median number of gastric (corpus) ulcers induced by indomethacin: Pinhead ulcers: pinhead = diameter 3 mm or less; for Effect against gastric ulcers induced by indomethacin: oral dosing 1 h before indomethacin 20 mg/kg orally, result in words
Experimental: Groups of […] male rats were given oral doses of vehicle, 2,3-dimethyl-8-(2-ethyl-6-methylbenzylamino)-imidazo[1,2-a]pyridine-6-carboxamide(0.3, 1, 3 and 10 μmol/kg) or ranitidine (10 μmol/kg). Indomethacin 20 mg/kg, orally) was given 1 h after dosing. Stomach was removed 5 h after indomethacin and examined macroscopically Indomethacin induced ulcers in the corpus only, rumen and anthrum were unaffected. Ulcers in the corpus were classified as pinhead (diameter 3 mm or less) or furrows (>3 mm).

[1] = oral dose 0.3 μmol/kg 1 h before indomethacin 20 mg/kg orally
[2] = oral dose 1 μmol/kg 1 h before indomethacin 20 mg/kg orally
[3] = oral dose 3 μmol/kg 1 h before indomethacin 20 mg/kg orally
[4] = oral dose 10 μmol/kg 1 h before indomethacin 20 mg/kg orally
[5] = oral doses 0.3, 1, 3 and 10 μmol/kg

| SMILES | Median number of gastric (corpus) ulcers induced by indomethacin: Ulcer furrows [1] | Median number of gastric (corpus) ulcers induced by indomethacin: Pinhead ulcers [1] | Median number of gastric (corpus) ulcers induced by indomethacin: Ulcer furrows [2] | Median number of gastric (corpus) ulcers induced by indomethacin: Pinhead ulcers [2] | Median number of gastric (corpus) ulcers induced by indomethacin: Ulcer furrows [3] | Median number of gastric (corpus) ulcers induced by indomethacin: Pinhead ulcers [3] | Median number of gastric (corpus) ulcers induced by indomethacin: Ulcer furrows [4] | Median number of gastric (corpus) ulcers induced by indomethacin: Pinhead ulcers [4] | Dose at which the decrease in pinhead ulcers and ulcer furrows was maximal [5] | Dose from which the decrease in pinhead ulcers and ulcer furrows was statistically significant [5] | Effect against gastric ulcers induced by indomethacin |
| --- | --- | --- | --- | --- | --- | --- | --- | --- | --- | --- | --- |
| CCc1cccc(C)c1CNc1cc(C(N)=O)cn2c(C)c(C)nc12 [2,3-dimethyl-8-(2-ethyl-6-methylbenzylamino)-imidazo[1,2-a]pyridine-6-carboxamide] | 8 | 5 | 9 | 5 | 1 | 2 | 0 | 0 | 10 µmol/kg | 3 µmol/kg | protective effect |
| CNC(=C[N+](=O)[O-])NCCSCc1ccc(CN(C)C)o1 [Ranitidine, ranitidine, reference compound] | – | – | – | – | – | – | 11 | 7 | – | – | no effect |
